This is an account of results in patent US9850219B1, “Phenothiazine derivatives and methods of use thereof” (Acenda Pharma, Inc., priority 2016, dated 2017).

Series [1] relates to H1299. The series is described as follows: Cytotoxicity, sulforhodamine B (SRB) assay, H1299. In kind it is cell-based. Conditions: Homo sapiens, NCI-H1299, H1299, 48 h. From the text:
Human non-small cell lung cancer (NSCLC) cell lines (e.g., A549, H441GL and H1299), colon cancer cell lines (e.g., HCT116 and DLD1), breast cancer cell lines (e.g., MCF7 and MDA-MB-231), and pancreatic cancer cell lines (e.g., PANC-1 and SUIT-2) were used in cytotoxicity studies. […] A549 and H441GL are EGFR-wild type adenocarcinoma cell lines. H1299 is an EGFR-wild type large cell carcinoma cell line. HCT116 and DLD1 are metastatic colon cell lines. MCF7 is a hormone-responsive breast cancer cell line. MDA-MB-231 is a triple-negative breast cancer cell line. PANC-1 is a metastatic adenocarcinoma cell line. SUIT-2 is a pancreatic ductal adenocarcinoma cell line.
(§1) All cell lines were grown and maintained in RPMI medium supplemented with 10% fetal bovine serum (FBS, Invitrogen), 2 mM L-glutamine, 100 U/mL penicillin, and 100 μg/mL streptomycin. For cell the culture experiment, stock solution (10 mM) of each test compound was dissolved in dimethyl sulfoxide (DMSO; Sigma).
(§2) Cells were plated in 96-well plates at a density of 2000 cells per well in triplicate. The cells in each well were treated on the third day (to ensure proper plating efficiency and vitality) with different concentrations (0-50 μM) of each test compound for 48 h.
(§3) Cell viability was assessed using the sulforhodamine B (SRB) assay. The medium was discarded, and the adherent cells were fixed by 100 μL of cold 10% trichloroacetic acid (w/v) in each well for 1 h at 4° C. After fixation, cells were stained with 100 μL/well of 0.4% (w/v, in 1% acetic acid) SRB solution for 30 min at room temperature, and then washed 5 times with 1% acetic acid. After air-drying, 100 μL of 10 mM Tris base was added to each well and the absorbance was read at 530 nm. Cytotoxicity is expressed as the percent of cells in drug treated wells relative to number of cells in the solvent only control (set to 100%). Each experiment was performed independently in triplicate and cytotoxicity IC50 value of each test compound was calculated from cytotoxicity data obtained at various concentrations.

For series [2], the system named is lung cancer cells. In words: Cytotoxicity SRB assay, summary of Table 2. Format: cell-based, Human. The settings on record: summary in words of Table 2. A digest of the protocol:
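Cells plated at 2000/well, treated on day 3 with 0–50 μM compound for 48 h. Viability by SRB: TCA fixation, SRB staining, Tris solubilisation, absorbance at 530 nm, as percent of solvent control. IC50 calculated from triplicate independent experiments across concentrations.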

In series [3] the test system is A549. In words: Cytotoxicity, sulforhodamine B (SRB) assay, A549. In kind it is cell-based, Human. The settings on record: Homo sapiens, A549, 48 h, NA indicates no activity.
For series [4], the system named is H441GL. The series is described as follows: Cytotoxicity, sulforhodamine B (SRB) assay, H441GL. Format: cell-based, Human. Conditions: Homo sapiens, 48 h, NA indicates no activity.
The subject of series [5] is NSCLC cells. Conditions: from WO2015/184794, WO2013/060305, Yeh et al. 2012; cited from earlier work.
Series [6] concerns CSCs in human NSCLC cell lines. The settings on record: from US 2014/0294994, WO2013/060305, WO2015/184794; cited from earlier work.
For series [7], the system named is PANC-1. In words: Cytotoxicity, sulforhodamine B (SRB) assay, PANC-1. In kind it is cell-based, human. The settings on record: Homo sapiens, PANC-1, Pancreas, 48 h, NA = no activity. A digest of the protocol:
(§4)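 Viability after 48 h compound treatment (0-50 μM) was measured by SRB staining, normalised to solvent control; IC50 from independent triplicate experiments.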

Series [8] relates to DLD1. The series is described as follows: Cytotoxicity, sulforhodamine B (SRB) assay, DLD1. Format: cell-based, human. The settings on record: Homo sapiens, DLD-1, DLD1, Colon, 48 h.
Description: (§5) Human non-small cell lung cancer (NSCLC) cell lines (e.g., A549, H441GL and H1299), colon cancer cell lines (e.g., HCT116 and DLD1), breast cancer cell lines (e.g., MCF7 and MDA-MB-231), and pancreatic cancer cell lines (e.g., PANC-1 and SUIT-2) were used in cytotoxicity studies. These NSCLC cell lines have intrinsic resistance to epidermal growth factor receptor (EGFR) inhibitors, e.g., gefitinib. A549 and H441GL are EGFR-wild type adenocarcinoma cell lines. H1299 is an EGFR-wild type large cell carcinoma cell line. HCT116 and DLD1 are metastatic colon cell lines. MCF7 is a hormone-responsive breast cancer cell line. MDA-MB-231 is a triple-negative breast cancer cell line. PANC-1 is a metastatic adenocarcinoma cell line. SUIT-2 is a pancreatic ductal adenocarcinoma cell line.
as §1, §2, §3

Series [9] has as its system HCT116. In words: Cytotoxicity, sulforhodamine B (SRB) assay, HCT116. Format: cell-based, human. The settings on record: Homo sapiens, HCT-116, HCT116, Colon, 48 h.
Description: as §5, §1, §2, §3

Series [10] relates to MDA-MB-231. In words: Cytotoxicity, sulforhodamine B (SRB) assay, MDA-MB-231. Format: cell-based, human. The settings on record: Homo sapiens, MDA-MB-231, Breast, 48 h. Put shortly: as §4
Series [11] deals with SUIT-2. The series is described as follows: Cytotoxicity, sulforhodamine B (SRB) assay, SUIT-2. In kind it is cell-based, human. The settings on record: Homo sapiens, SUIT-2, Pancreas, 48 h. Put shortly:
as §4

Series [12] concerns H441GL cells. The series is described as follows: Study 2: tumor size in mouse lung cancer model. Format: in vivo, NOD/SCID mice. Conditions: Study 2, 0.0127 mmol/kg daily, i.p.; for Tumor Size [Fold Change from Week 3 (Mean ± SD, n = 4)] Week 3: Week 3 (baseline, start of treatment). How it is done:
H441GL cells (1×10^6 cells in 100 μL phosphate-buffered saline/injection) were subcutaneously injected into the right flank of NOD/SCID mice (female, 4-6 weeks old). Mice were allowed 2 weeks for tumor growth. On the first day of Week 3 post injection, tumor-bearing mice were randomly divided into control group (DMSO vehicle, intraperitoneal (i.p.) injection) and test compound treatment groups (5 mg/kg/day, 5 days/week, i.p. injection). Over the period of 10 weeks, tumorigenesis in both groups was measured using a caliper on a weekly basis. The change in tumor size was expressed as in fold change from Week 3. In this study body weight of each mouse was also recorded at the end of each study week.
In this study, the daily dose was 0.0127 mmol/kg instead of 5 mg/kg.

For series [13], the system named is MCF7. In words: Cytotoxicity, sulforhodamine B (SRB) assay, MCF7. Format: cell-based, human. The settings on record: Homo sapiens, MCF7, Breast, 48 h. A digest of the protocol: as §4

Each structure is given as a SMILES string.

For the molecule `Clc1ccc2c(c1)N(CCCN1CCNCC1)c1ccccc1S2` [NDP, 10-[3-(1-Piperazinyl)propyl]-2-chloro-10H-phenothiazine, reference compound], the IC50 is 6.6 µM in [1], 9.7 µM in series [3] and 8.4 µM in series [4]. In [2], the “inhibition of cell proliferation of lung cancer cells” value (“inhibition” below) is recorded as “inhibit cell proliferation”. Besides, the “cytotoxicity to NSCLC cells” value in series [5] is “shown cytotoxicity”.
For `CN1CCN(CCCN2c3ccccc3Sc3ccc(Cl)cc32)CC1` [PCP, prochlorperazine], in series [6], the “anti-tumor effects, growth of CSCs in human NSCLC cell lines” value is recorded as “inhibiting the growth of CSCs”. For the same molecule, the “inhibition” value in series [2] is “inhibit cell proliferation”. Also, the “cytotoxicity to NSCLC cells” value in series [5] was “shown cytotoxicity”.
In the case of `COCC(COCC(COCC(COCCOCCOCCN1CCN(CCCN2c3ccccc3Sc3ccc(C(F)(F)F)cc32)CC1)OC)OC)OC` (stereo not shown) [Compound 25-1b, NDT-[CH2CH2O]n—[CH2CH(OCH3)CH2O]3—CH3], the IC50 in series [7] was 10 µM; in series [8], 11.7 µM; in series [1], 6.9 µM; in series [3] it was 11.4 µM; in [4] it was 8.8 µM; in series [9], 7.2 µM. The IC50 in series [10] came out at 11.2 µM; in series [11] it was 10.9 µM; in [13], 12.2 µM. Further, the “inhibition” value in series [2] is listed as “inhibit cell proliferation”. For the same molecule, in series [12], the “Tumor Size [Fold Change from Week 3 (Mean ± SD, n = 4)] Week 3” value was found to be 1 ± 0 Fold Change. The “Tumor Size [Fold Change from Week 3 (Mean ± SD, n = 4)] Week 9” value in series [12] turned out to be 10.2 ± 1.4 Fold Change. Also, in series [12], the “Tumor Size [Fold Change from Week 3 (Mean ± SD, n = 4)] Week 13” value is recorded as 25.0 ± 4.4 Fold Change.
For `COCC(COCC(COCC(COCCOCCOCCOCCOCCOCCOCCOCCOCCN1CCN(CCCN2c3ccccc3Sc3ccc(C(F)(F)F)cc32)CC1)OC)OC)OC` (stereo not shown) [Compound 25-2b, NDT-[CH2CH2O]n—[CH2CH(OCH3)CH2O]3—CH3], the IC50 in [7] was 2.9 µM; in [8], 15.3 µM; in series [1], 13.9 µM; in series [3], 14 µM; in series [4] it was 11.4 µM; in series [9] it was 11.4 µM. The IC50 in series [10] was determined as 13.1 µM; in series [11], 13 µM; in [13] it was 10.9 µM. Moreover, the “inhibition” value in series [2] is listed as “inhibit cell proliferation”. Besides, in series [12], the “Tumor Size [Fold Change from Week 3 (Mean ± SD, n = 4)] Week 3” value came to 1 ± 0 Fold Change. For the same molecule, in series [12], the “Tumor Size [Fold Change from Week 3 (Mean ± SD, n = 4)] Week 9” value was determined as 13.0 ± 1.6 Fold Change. For the same molecule, the “Tumor Size [Fold Change from Week 3 (Mean ± SD, n = 4)] Week 13” value in [12] is given as 35.7 ± 5.3 Fold Change.
On to `CN1CCN(CCCN2c3ccccc3Sc3ccc(C(F)(F)F)cc32)CC1` [TFP, trifluoperazine, reference compound], for which, in series [6], the “anti-tumor effects, growth of CSCs in human NSCLC cell lines” value is reported as “inhibiting the growth of CSCs”. Besides, the IC50 in series [1] was 28.7 µM; in series [3], 23.5 µM; in series [4] it was 21.6 µM. Moreover, the “inhibition” value in [2] is given as “inhibit cell proliferation”. Moreover, in [5], the “cytotoxicity to NSCLC cells” value is given as “shown cytotoxicity”.
